Where “and” joins values, the source holds several entries; their conditions need not be identical. Identical values can stand only once. Like-named read-outs stand apart in the source and are kept apart here. *1 amine or outer side, *2 acyl side, *3 side chain or, on linkers, in order; H or OH if unused. Where a SMILES comes first, the peptide text is derived from it. Bridges are numbered along the chain shown (N, C = ends). [ ]: non-standard residue; d: D form. Ser(Bzl) = O-benzyl-L-serine, O=C([C@H](COCc1ccccc1)N[*:1])[*:2]; Orn = NCCC[C@H](N)C(=O)O

The target of data set [1] is T1, hMC4-R (Homo sapiens, UniProt P32245).
T1 construct: expressed in transfected cells; host or cells: HEK-293 (membrane homogenates)
The data set can be described thus: Competitive binding assay using Eu-NDP-α-MSH, MC4-R. Particulars: for selectivity for MC4-R (binding against MC1-R, MC3-R and MC4-R): in words. The method, then:
Competitive inhibition binding assays were performed using membrane homogenates prepared from HEK-293 cells that express recombinant hMC1-R, hMC3-R, hMC4-R, or hMC5-R. In the examples that follow, all MC1-R, MC3-R, MC4-R and MC5-R values are for human recombinant receptors. Assays were performed in 96 well GF/B Millipore multiscreen filtration plates (MAFB NOB10) pre-coated with 0.5% bovine serum albumin (Fraction V). Membrane homogenates were incubated with 0.1 nM [1^125]-NDP-α-MSH (Perkin Elmer) and increasing concentrations of test peptides of the present invention in buffer containing 25 mM HEPES buffer (pH 7.5) with 100 mM NaCl, 2 mM CaCl2, 2 mM MgCl2, 0.3 mM 1,10-phenanthroline, and 0.1% bovine serum albumin. After incubation for 90 minutes at 37° C., the assay mixture was filtered and the membranes washed with 1 mL of cold 1×PBS wash buffer per well. 35 μL of scintillation cocktail was added to each well and the plates counted on a Microbeta counter for 1 minute per well. Non-specific binding was measured by inhibition of binding of [I^125]-NDP-α-MSH in the presence of 1 μM NDP-α-MSH. Maximal specific binding (100%) was defined as the difference in radioactivity (cpm) bound to cell membranes in the absence and presence of 1 μM NDP-α-MSH. Radioactivity (cpm) obtained in the presence of test compounds was normalized with respect to 100% specific binding to determine the percent inhibition of [I^125]-NDP-α-MSH binding. Each assay was conducted in duplicate and actual mean values are described, with results less than 0% reported as 0%. Ki values for test peptides of the present invention were determined using Graph-Pad Prism® curve-fitting software.
Alternatively, a competitive inhibition binding assay was performed employing Eu-NDP-α-MSH (PerkinElmer Life Sciences catalog No. AD0225) with determination by time-resolved fluorometry (TRF) of the lanthanide chelate. In comparison studies with [I^125]-NDP-α-MSH, the same values, within experimental error ranges, were obtained for percent inhibition and Ki. Typically competition experiments to determine Ki values were conducted by incubating membrane homogenates prepared from HEK-293 cells that express recombinant hMC4-R with 9 different concentrations of test compounds of interest and 1 nM of Eu-NDP-α-MSH in a solution containing 25 mM HEPES buffer with 100 mM NaCl, 2 mM CaCl2, 2 mM MgCl2, 0.1% BSA, and 0.3 mM 1,10-phenanthroline. After incubation for 90 minutes at 37° C., the reaction was stopped by filtration over AcroWell 96-well filter plates (Pall Life Sciences). The filter plates were washed 4 times with 200 μL of ice-cold phosphate-buffered saline. DELFIA Enhancement solution (PerkinElmer Life Sciences) was added to each well. The plates were incubated on a shaker for 15 minutes and read at 340 nm excitation and 615 nm emission wavelengths. Each assay was conducted in duplicate and mean values were utilized. Ki values were determined by curve-fitting with Graph-Pad Prism® software using a one-site fixed-slope competition binding model.

A short description of data set [2]: Food intake and body weight change in rats. It counts as in vivo, rat. The conditions noted are these: for food intake / rate of change in body weight: rat feeding studies, overall finding in words; for decrease in food consumption compared to control: rats. The method, then:
Change in food intake and body weight was evaluated for selected peptides administered by intravenous (IV) or subcutaneous injection routes. Male Sprague-Dawley rats were obtained from Hilltop Lab Animals, Inc. (Scottsdale, Pa.) or other vendors. Animals were individually housed in conventional polystyrene hanging cages and maintained on a controlled 12 hour on/off light cycle. Water and pelleted food was provided ad libitum. The rats were dosed IV with vehicle or selected peptides (0.3 to 1.0 mg/kg), or dosed subcutaneously with vehicle or selected peptides (doses up to 30 mg/kg). The changes in body weight and food intake for the 24 hour period after dosing was determined. The changes in body weight and food intake for the 48 hour and 72 hour periods after dosing can also be measured to determine reversal of changes in body weight and food intake effects back to baseline levels.

A short description of data set [3]: Induction of penile erection in male rats. Particulars: for increase in observed spontaneous erections: in words. It is filed as in vivo, rat. The method, then:
The ability of peptides of the present invention to induce penile erection (PE) in male rats were evaluated with selected peptides. Male Sprague-Dawley rats weighing 250-300 g were kept on a 12 hour on/off light cycle with food and water ad libitum. All behavioral studies were performed between 9 a.m. and 4 p.m. Groups of 6-8 rats were administered peptides at a variety of doses via an IV route. Immediately after treatment, rats were placed into individual polystyrene cages (27 cm long, 16 cm wide, and 25 cm high) for behavioral observation, typically by remote video monitoring. Rats are observed for one hour, and the number of yawns, grooming bouts and PEs are recorded in 10-minute bins.

Data set [4] concerns the target T1, hMC4-R. The data set can be described thus: Assay for agonist activity (cAMP accumulation in HEK-293 cells expressing hMC4-R). It counts as cell-based. On the procedure:
Accumulation of intracellular cAMP was examined as a measure of the ability of the peptides of the present invention to elicit a functional response in HEK-293 cells that express MC4-R. Confluent HEK-293 cells that express recombinant hMC4-R were detached from culture plates by incubation in enzyme-free cell dissociation buffer. Dispersed cells were suspended in Earle's Balanced Salt Solution containing 10 mM HEPES (pH 7.5), 1 mM MgCl2, 1 mM glutamine, 0.5% albumin and 0.3 mM 3-isobutyl-1-methyl-xanthine (IBMX), a phosphodiesterase inhibitor. The cells were plated in 96-well plates at a density of 0.5×10^5 cells per well and pre-incubated for 10 minutes. Cells were exposed for 15 minutes at 37° C. to peptides of the present invention dissolved in DMSO (final DMSO concentration of 1%) at a concentration range of 0.05-5000 nM in a total assay volume of 200 μL. NDP-α-MSH was used as the reference agonist. cAMP levels were determined by an HTRF® cAMP cell-based assay system from Cisbio Bioassays utilizing cryptate-labeled anti-cAMP and d2-labeled cAMP, with plates read on a Perkin-Elmer Victor plate reader at […]. Data analysis was performed by nonlinear regression analysis with Graph-Pad Prism® software. The maximum efficacies of the test peptides of the present invention were compared to that achieved by the reference melanocortin agonist NDP-α-MSH.
(In general: Changes in cAMP serve as a functional read-out for many G protein-coupled receptors.)

Data set [5] has as its target human melanocortin-4 receptor (recombinant hMC4-R) (human) (UniProt P32245). The experiment in a line: cell-based or functional assay.
The target in data set [6] is human melanocortin-4 receptor (recombinant hMC4-R) (human, UniProt P32245 1-332). The experiment in a line: cell-based or functional assay.
Data set [7] addresses T2, human melanocortin-3 receptor (recombinant hMC3-R) (human, UniProt P41968 1-323).
T2 construct: whole, on cells; Membrane homogenates of HEK-293 cells expressing the recombinant receptor
The experiment in a line: competitive binding vs labelled NDP-α-MSH, hMC3-R membranes.

Setting [8] is: competitive binding using Eu-NDP-α-MSH, human recombinant receptor, read-out: MC4-R Ki.
Where [9] appears, read: competitive studies using Eu-NDP-α-MSH / NDP-α-MSH, average of several studies, read-out: Ki value at MC4-R.

T1 sequence (P32245 whole entry): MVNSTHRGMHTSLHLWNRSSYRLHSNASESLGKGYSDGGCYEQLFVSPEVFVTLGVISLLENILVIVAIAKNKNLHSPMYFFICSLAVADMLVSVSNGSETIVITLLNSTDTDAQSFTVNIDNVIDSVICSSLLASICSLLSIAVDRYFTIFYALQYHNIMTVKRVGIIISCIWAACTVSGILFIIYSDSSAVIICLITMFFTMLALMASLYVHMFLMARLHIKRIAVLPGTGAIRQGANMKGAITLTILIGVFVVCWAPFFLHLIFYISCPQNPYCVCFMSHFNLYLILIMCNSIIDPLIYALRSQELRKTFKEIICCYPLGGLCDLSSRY
Sequence of human melanocortin-4 receptor (recombinant hMC4-R) (human) (P32245 whole entry): as above
Sequence of human melanocortin-4 receptor (recombinant hMC4-R) (P32245 whole entry): as above
T2 sequence (P41968 whole entry): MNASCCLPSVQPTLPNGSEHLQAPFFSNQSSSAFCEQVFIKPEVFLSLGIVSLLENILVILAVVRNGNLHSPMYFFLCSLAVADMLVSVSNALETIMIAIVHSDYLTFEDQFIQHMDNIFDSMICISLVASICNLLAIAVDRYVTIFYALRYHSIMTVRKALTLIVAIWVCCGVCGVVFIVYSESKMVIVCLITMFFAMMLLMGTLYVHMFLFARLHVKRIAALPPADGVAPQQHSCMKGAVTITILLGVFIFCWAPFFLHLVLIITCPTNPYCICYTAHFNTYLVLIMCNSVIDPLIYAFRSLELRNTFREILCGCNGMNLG

Broadly, the Ki is a measure of affinity in units of concentration, obtained from inhibition or displacement. For the molecule `CC(=O)N[C@@H](CCCNC(=N)N)C(=O)N[C@H]1CCC(=O)NCCC[C@@H](C(=O)O)NC(=O)[C@H](Cc2c[nH]c3ccccc23)NC(=O)[C@H](CCCNC(=N)N)NC(=O)[C@@H](Cc2ccccc2)NC(=O)[C@H](COCc2ccccc2)NC1=O` [Compound 6, Ac-Arg-cyclo(Glu-Ser(Bzl)-D-Phe-Arg-Trp-Orn)-OH], on hMC4-R [1] (setting [8]), the Ki is 13 nM.

Take `CC(=O)N[C@@H](CCCNC(=N)N)C(=O)N[C@H]1CCCNC(=O)CC[C@@H](C(N)=O)NC(=O)[C@H](Cc2c[nH]c3ccccc23)NC(=O)[C@H](CCCNC(=N)N)NC(=O)[C@@H](Cc2ccccc2)NC(=O)[C@@H]2CCCN2C1=O` [Compound 5, Ac-Arg-cyclo(Orn-Pro-D-Phe-Arg-Trp-Glu)-NH2] (Ac-R[Orn]P[dF]RWE-NH2; lactam 2-7): the inhibition constant (Ki) at hMC4-R [1] (setting [8]) is 13 nM.

For the molecule `CC(=O)N[C@@H](CCCNC(=N)N)C(=O)N[C@H]1CC(=O)NCCCC[C@@H](C(N)=O)NC(=O)[C@H](Cc2c[nH]c3ccccc23)NC(=O)[C@H](CCCNC(=N)N)NC(=O)[C@@H](Cc2ccccc2)NC(=O)[C@@H]2CCCN2C1=O` [Compound 3, Ac-Arg-cyclo(Asp-Pro-D-Phe-Arg-Trp-Lys)-NH2], on hMC4-R [1] (setting [9]), the Ki turned out to be 11 nM. For the same molecule, on hMC4-R [1], the “selectivity for MC4-R (binding against MC1-R, MC3-R and MC4-R)” value is listed as “highly selective for MC4-R”. In addition, the food intake result in data set [2] is recorded as “reduce food intake”. In data set [2], the “rate of change in body weight” value is “decrease the rate of change in body weight”. In addition, the “decrease in food consumption compared to control” value in data set [2] (0.3 mg/kg, 0-2 hour period) is “statistically significant”; in data set [2] (0.3 mg/kg, 0-4 hour period) it was “statistically significant”; in data set [2] (0.3 mg/kg, 0-20 hour period) it was “statistically significant”; in data set [2] (1 mg/kg, 0-2 hour period), “statistically significant”; in data set [2] (1 mg/kg, 0-4 hour period), “statistically significant”; in data set [2] (1 mg/kg, 0-20 hour period), “statistically significant”. The “average spontaneous erections per rat in one hour” value was 1.143±0.553 spontaneous erections per rat in one hour in data set [3] (IV, 0.3 mg/kg) and 1.286±0.421 spontaneous erections per rat in one hour in data set [3] (IV, 1 mg/kg). Further, the “increase in observed spontaneous erections” value in data set [3] (IV) is “not found to result in a statistically significant increase”.

As a reminder, the EC50 is the concentration needed to bring the measured effect to its halfway point. For `CC(=O)N[C@@H](CCCNC(=N)N)C(=O)N[C@H]1CC(=O)NCCCC[C@@H](C(=O)O)NC(=O)[C@H](Cc2c[nH]c3ccccc23)NC(=O)[C@H](CCCNC(=N)N)NC(=O)[C@@H](Cc2ccccc2)NC(=O)[C@H](COCc2ccccc2)NC1=O` [Compound 1, Ac-Arg-cyclo(Asp-Ser(Bzl)-D-Phe-Arg-Trp-Lys)-OH], the inhibitory constant (Ki) on hMC4-R [1] (setting [9]) is 12 nM. Besides, on hMC4-R [1], the “selectivity for MC4-R (binding against MC1-R, MC3-R and MC4-R)” value is listed as “highly selective for MC4-R”. Besides, at hMC4-R [4] (HEK293, NDP-α-MSH is 100%, read-out: intrinsic activity at MC4-R), the Emax worked out at 38%. Also, the “intrinsic activity at MC4-R” value on hMC4-R [4] (NDP-α-MSH is 100%) worked out at 47%. Besides, a half-maximal response at hMC4-R [4] (functional studies at MC4-R, average of several studies) (EC50) required 2 nM. Also, on hMC4-R [4] (in words), the “functional classification at MC4-R” value was “partial agonist”. In data set [2], the food intake result was “reduce food intake”. Also, in data set [2], the “rate of change in body weight” value is reported as “decrease the rate of change in body weight”. Further, the “decrease in food consumption compared to control” value is “statistically significant” in data set [2] (0.3 mg/kg, 0-4 hour period); “statistically significant” in data set [2] (1 mg/kg, 0-2 hour period); “statistically significant” in data set [2] (1 mg/kg, 0-4 hour period); “statistically significant” in data set [2] (1 mg/kg, 0-20 hour period). Also, the “average spontaneous erections per rat in one hour” value in data set [3] (IV, 1 mg/kg) was 1.5±0.378 spontaneous erections per rat in one hour. Further, in data set [3] (IV), the “increase in observed spontaneous erections” value was “not found to result in a statistically significant increase”.

On to `CCCC[C@H](NC(C)=O)C(=O)N[C@H]1CC(=O)NCCCC[C@@H](C(=O)O)NC(=O)[C@H](Cc2c[nH]c3ccccc23)NC(=O)[C@H](CCCN=C(N)N)NC(=O)[C@@H](Cc2ccccc2)NC(=O)[C@H](Cc2cnc[nH]2)NC1=O` [bremelanotide, Ac-Nle-cyclo(Asp-His-D-Phe-Arg-Trp-Lys)-OH, reference compound], for which the “average spontaneous erections per rat in one hour” value is 4.875±0.990 spontaneous erections per rat in one hour and 3.167±0.79 spontaneous erections per rat in one hour in data set [3] (IV, 1 mg/kg); 3.714±0.680 spontaneous erections per rat in one hour in data set [3] (positive control, dose not stated in this study).

B1: cyclic peptide of Compound 7, Ac-Arg-cyclo(Orn-Ser(Bzl)-D-Phe-Arg-Trp-Glu)-OH (peptide)
peptide: Ac-R[Orn][Ser(Bzl)][dF]RWE-OH
modifications: lactam 2-7; also: TFA salt
As for B1, in data set [5], the EC50 (cAMP accumulation, HEK-293 cells expressing hMC4-R) turned out to be 2 nM and the intrinsic activity (cAMP accumulation, HEK-293 cells expressing hMC4-R) was 47%.

B2: cyclic peptide of Compound 3, Ac-Arg-cyclo(Asp-Pro-D-Phe-Arg-Trp-Lys)-NH2 (peptide)
peptide: RDPXRWK
modifications: N-terminal acetyl (Ac); D-Phe at position 4; side-chain lactam cyclo(Asp2-Lys7); C-terminal amide (-NH2)
notes: Synthetic cyclic heptapeptide; prepared as TFA salt; also called No. 3
Take B2: the “EC50 (cAMP accumulation, HEK-293 cells expressing hMC4-R)” value in data set [6] was found to be 10 nM. For the same molecule, the inhibitory constant (Ki) in data set [7] was found to be 125 nM.
